Assay results from publication PMC2908543, “Uropathogenic Escherichia coli Modulates Immune Responses and Its Curli Fimbriae Interact with the Antimicrobial Peptide LL-37” (PLoS Pathogens, 2010).
Entries after “also recorded” stand apart in the source; their conditions may differ. Read-outs that look alike come from different tables or passages of the source.

Assays:
[1] = system: E. coli strain No. 12 and isogenic mutants; format: cell-based, Escherichia coli; conditions: for IC50: initially grown in biofilm (LB plates without salt), 10^5 CFU/ml, 0.6 µM to 20 µM peptide in 2-fold dilutions, LB broth without salt, 20 h, Alamar blue 570 nm, two experiments in triplicates, read-out: IC50 (concentration at which bacterial growth was inhibited to 50%)
Description: For further investigation, E. coli isolate No. 12 from a child with pyelonephritis was chosen. This was a typical isolate expressing both curli and cellulose as well as type 1 fimbriae and yielding an approximately median level of biofilm as measured on microtiter plates. One-step knockout of bcsA and csgBA was carried out according to the protocol of Datsenko and Wanner with modifications, [50]. The following mutants were constructed using oligos listed in Table 1; WE1 bcsA::Cm, deficient in cellulose production; WE11 csgBA::Cm, deficient in curli production; and WE16 csgBA bscA::Cm, deficient in both cellulose and curli production. Expression of curli and cellulose in strain No. 12 was confirmed by these knockouts. Production of type 1 fimbriae under the culture conditions used for experiments was confirmed by yeast agglutination (see below).
The susceptibility of wild-type and mutant E. coli strains to synthetic LL-37 and mCRAMP (Innovagen AB, Lund, Sweden) was determined using a broth microdilution method. Briefly, bacteria were grown overnight at 37°C on LB plates with or without salt, inhibiting or promoting the formation of biofilm, respectively. Then, bacteria were suspended in PBS and diluted in LB broth without salt in a concentration of 10^5 CFU/ml. The bacterial concentration was verified by viable count after serial dilutions in PBS. Bacteria (90 µl suspension) were grown in 96-well plates in the presence of 10 µl aqueous solution of synthetic LL-37 or mCRAMP in final concentrations ranging from 0.6 µM to 20 µM in 2-fold dilutions. After 20 h, bacterial viability was measured colorimetrically by reduction of Alamar blue (BioSource International, Camarillo, CA, USA) for 1 h at 37°C [57]. The IC50 was determined as the peptide concentration that gave 50% reduction of the absorbance at 570 nm relative to bacteria grown without peptide.

wild-type curli = experiment: Precipitation of LL-37 with wild-type curli, Western blot of supernatant; format: binding, Escherichia coli; conditions: 0.1 µM LL-37 in PBS with 5 µM wild-type curli, 1 h at 37°C
Description: The cellulose-deficient isogenic mutant of E. coli No. 12 was used to purify wild-type curli, as has been described. Colonies were harvested and suspended in 0.05 M Tris-buffer by using an omnimixer. Bacterial cell debris was discarded by centrifugation at 8000×g for 15 min and curli protein was precipitated by adding 0.1 M MgCl2 and 0.15 M NaCl. The aggregated curli were centrifuged at 16000×g for 15 min, and the pellet was dissolved in 10 mM TRIS, 1 mM EDTA, pH 7.5 with 2% 3-((3-cholamidopropyl)dimethylammonium)-1-propanesulfonate (CHAPS). After incubation for 45 min at 95°C, the solution was centrifuged at 20000×g for 10 min. The pellet containing curli was washed three times with water. Finally, curli were suspended in PBS and used for binding studies with LL-37.
LL-37 (0.1 µM in PBS) was mixed with 5 µM wild-type curli, or 5 µM recombinant polymerized CsgA. As control, the same concentration of LL-37 without curli or CsgA was utilized. The samples were incubated for 1 h at 37°C with shaking and centrifuged for 30 min at 10000×g. An aliquot of the supernatants was analyzed for the presence of LL-37 with Western blot.
Sample preparation and SDS-PAGE was carried out as described above and Western blot was performed as previously described. […]

[2] = system: recombinant polymerized CsgA; experiment: Precipitation of LL-37 with polymerized CsgA, Western blot of supernatant; format: binding, Escherichia coli; conditions: 0.1 µM LL-37 in PBS with 5 µM recombinant polymerized CsgA, 1 h at 37°C
Description: CsgA-His6 and CsgG, a lipoprotein that is required for CsgA secretion, were overexpressed in LSR12 (C600::csg). The purification procedure of recombinant CsgA-His6 was performed as previously described with some modifications. The filtrate was incubated with nickel-nitrilotriacetic acid (Ni-NTA) agarose (Invitrogen) for 1 h at 4°C with shaking, centrifuged at 200×g for 5 min and transferred to a polyprep chromatography column (Bio-Rad, Hercules, CA, USA). To confirm protein identity of CsgA-His6, the isolated protein was prepared and subjected to SDS-PAGE as described below, and thereafter the protein was transferred from the gel to a polyvinylidene fluoride (PVDF) membrane (Invitrogen) at 160 mA for 60 min. The band of 15 kDa, corresponding to the molecular weight of CsgA-His6, was excised from the membrane stained with Coomassie Blue and analysed with N-terminal sequence analysis as has been described. Since it has previously been shown that CsgA-His6 has the same polymerizing properties as wild-type CsgA [59], we refer to CsgA-His6 as CsgA.
LL-37 (0.1 µM in PBS) was mixed with 5 µM wild-type curli, or 5 µM recombinant polymerized CsgA. As control, the same concentration of LL-37 without curli or CsgA was utilized. […] An aliquot of the supernatants was analyzed for the presence of LL-37 with Western blot. […]

monomeric CsgA = target: T1, monomeric CsgA (Escherichia coli, UniProt P28307); experiment: CsgA monomer stability, SDS-PAGE; format: biochemical; conditions: 10 µM CsgA, 20 h at 37°C, Coomassie Blue, seen already at molar ratio 16∶1 (CsgA∶LL-37)
T1 construct: made in house; host or cells: E. coli LSR12 (C600::csg), co-expressed with CsgG
Description: To confirm the inhibition of CsgA polymerization we sought to analyse the stability of the CsgA monomer in the absence and presence of LL-37. Freshly purified, monomeric CsgA (10 µM) was incubated for 20 h at 37°C without or with different concentrations of LL-37 and was subsequently separated by SDS-PAGE. After staining with Coomassie Blue, bands corresponding to LL-37 and/or CsgA in monomeric, dimeric or tetrameric form were visualized. When CsgA was incubated alone, monomers were not visible although sometimes dimers and/or tetramers could be observed. This finding indicates spontaneous formation of CsgA oligomers and/or larger polymers that can not migrate into the gel due to their size. […] This was already seen at a molar ratio of 16∶1 (CsgA∶LL-37). To exclude degradation of CsgA as a possible explanation for the lack of the gel band, polymerized CsgA was treated with 90% formic acid, dissolving polymeric CsgA into monomers. After this treatment, a band corresponding to monomeric CsgA was detectable in the gel (Figure 8A).
Samples were prepared in LDS (lithium dodecyl sulphate) sample buffer (4∶1) and incubated at 70°C for 10 min. Electrophoresis was performed using 4–12% Bis-tris NU-PAGE gels (Invitrogen) at 200 V for 35 min. Gels were stained with Coomassie Blue for 1 h and destained over night in 90% water, 8% methanol and 2% acetic acid (vol/vol/vol).

T1 sequence (P28307 21-151): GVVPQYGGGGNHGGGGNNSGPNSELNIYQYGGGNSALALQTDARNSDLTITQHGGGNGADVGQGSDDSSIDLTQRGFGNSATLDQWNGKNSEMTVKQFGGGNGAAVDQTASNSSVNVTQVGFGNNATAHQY

CC[C@H](C)[C@H](NC(=O)[C@H](CCCCN)NC(=O)[C@H](CCC(=O)O)NC(=O)[C@H](CCCCN)NC(=O)[C@H](CO)NC(=O)[C@H](CCCCN)NC(=O)[C@H](CCCNC(=N)N)NC(=O)[C@H](Cc1ccccc1)NC(=O)[C@H](Cc1ccccc1)NC(=O)[C@H](CC(=O)O)NC(=O)CNC(=O)[C@H](CC(C)C)NC(=O)[C@@H](N)CC(C)C)C(=O)NCC(=O)N[C@@H](CCCCN)C(=O)N[C@@H](CCC(=O)O)C(=O)N[C@@H](Cc1ccccc1)C(=O)N[C@@H](CCCCN)C(=O)N[C@@H](CCCNC(=N)N)C(=O)N[C@H](C(=O)N[C@H](C(=O)N[C@@H](CCC(N)=O)C(=O)N[C@@H](CCCNC(=N)N)C(=O)N[C@H](C(=O)N[C@@H](CCCCN)C(=O)N[C@@H](CC(=O)O)C(=O)N[C@@H](Cc1ccccc1)C(=O)N[C@@H](CC(C)C)C(=O)N[C@@H](CCCNC(=N)N)C(=O)N[C@@H](CC(N)=O)C(=O)N[C@@H](CC(C)C)C(=O)N[C@H](C(=O)N1CCC[C@H]1C(=O)N[C@@H](CCCNC(=N)N)C(=O)N[C@H](C(=O)N[C@@H](CCC(=O)O)C(=O)N[C@@H](CO)C(=O)O)[C@@H](C)O)C(C)C)[C@@H](C)CC)C(C)C)[C@@H](C)CC [LL-37]
difference in resistance between the strains ([1]; bacteria pre-grown planktonically, curli expression suppressed (data not shown)): no significant difference in the resistance
IC50 ([1]; curliated strains): 12 µM
IC50 ([1]; non-curliated strains): 6 to 7 µM
LL-37 in supernatants after precipitation (wild-type curli): pronounced decrease of LL-37 in supernatants; also recorded: the levels of LL-37 decreased in the supernatants
LL-37 in supernatants after precipitation [2]: pronounced decrease of LL-37 in supernatants; also recorded: the levels of LL-37 decreased in the supernatants
CsgA monomer band at 15 kDa in presence of LL-37 (monomeric CsgA): a band migrating at 15 kDa, the predicted size of monomeric CsgA, could be observed; also recorded: the CsgA monomer is visible after SDS-PAGE
